Test results published in patent US7419997B2, “Tetrahydrocarbazole derivatives and their pharmaceutical use” (SmithKline Beecham Corporation, priority 2003, dated 2008).

tested on: episomal HPV16 DNA in W12-20850 cells; experiment: W-12 cellular assay (episomal HPV-16 DNA, hybrid capture); assay type: cell-based, HPV16 (human papillomavirus); settings: Human papillomavirus 16, 96 h, four days incubation, episomal HPV-16 DNA quantified by hybrid capture, inhibition relative to untreated control cells
Description: Compounds of the current invention are believed useful in the treatment and/or prophylaxis of conditions and diseases associated with HPV infection. Activity mediated through HPV was determined using the following W-12 cellular assay.
The W12 cell line used contains HPV16 DNA and was derived from a low-grade cervical dysplasia tissue by Margaret Stanley and subsequently clonally selected by Paul Lambert (University of Wisconsin). One of these clones, W12-20850, contains 1000 copies of episomal HPV16 DNA and was used in the cell-based assay. W12-20850 cells were routinely cultured with a gamma-irradiated (6000 rads) feeder layer of 3T3 cells. Assays, however, were run in the absence of a 3T3 feeder layer. W12-20850 and 3T3 cells were routinely split when they were sub-confluent. W12-20850 were grown in W12 Medium which is constituted of 25% DMEM (Gibco BRL, Cat # 12430-047), 75% F12 Media (Gibco BRL, Cat # 11765-021) and 2.5% FBS. The additives include […] Adenine (Sigma, Cat # A-9795), 0.4 mg/ml Hydrocortisone (Calbiochem, Cat # 386698), […] Bovine Insulin (Sigma, Cat # I-1882), 8.4 ng/ml cholera toxin (Fluka, Cat # 26694) and 10 ng/ml EGF (Invitrogen, Cat # 13247-051). 3T3 cells were grown in DMEM containing 10% FBS. Cell lines were incubated at 37° C., in the presence of 5% CO2.
For the assay, W12-20850 cells were seeded into a 96 well plate-containing compound. Plates were incubated at 37° C. in the presence of 5% CO2, for four days. On the fourth day, cells were lysed and the amount of episomal HPV-16 DNA was quantified using a non-radioactive hybrid capture technique with HPV-16 specific capture and detection probes. The percent inhibition relative to untreated control cells was then determined.
The hybrid capture assay is run in a 96 well plate format. Hybridization plates (Nunc Maxisorb Cat # 450320) were coated with a mixture of capture probe and ReactiBind solution for at least 4 hours and then washed with 0.2)(SSC, 0.05% Tween20 (SSCT) prior to blocking with 150 μl/well of 0.2 N NaOH, 1% Igepal, 10 mg/ml hsDNA for 6-8 hours. The hybridization was carried out by mixing 271 μl of lysed cells with 45 μl of denatured detection probe in 6M guanidine isothiocyanate. To prevent evaporation, 50 μl of mineral oil was added to each well. The plate was then heated to 90° C. for 6.5 minutes and the hybridization continued at 42° C. overnight. Assay plates were washed 6 times with SSC/T. Anti-digoxigenin HRP-conjugated Ab (Boehringer Mannheim 1207733, 1:5000) was incubated in the wells for 30 min at room temperature and washed with PBS/0.05% Tween-20. SuperSignal LBA substrate (Pierce Cat # 37070) was added, and chemiluminescence was measured using Wallac 1420 Victor plate reader.

IC50 [nM] | SMILES
45 | O=C(NC1CCCc2c1[nH]c1ccc(Br)cc21)c1ccc([N+](=O)[O-])cc1 (stereo not shown) [Example 22, N-(6-Bromo-2,3,4,9-tetrahydro-1H-carbazol-1-yl)-4-nitrobenzamide]
> 10000 | Cc1ccc2[nH]c3c(c2c1)CCCC3NC(=O)Nc1ccccc1 (stereo not shown) [Example 43, N-(6-Methyl-2,3,4,9-tetrahydro-1H-carbazol-1-yl)-N′-phenylurea]
184 | Cc1ccc2[nH]c3c(c2c1)CCCC3NC(=O)c1ccccc1 (stereo not shown) [Example 35, N-(6-Methyl-2,3,4,9-tetrahydro-1H-carbazol-1-yl)benzamide]
20 | O=C(N[C@@H]1CCCc2c1[nH]c1ccc(Cl)cc21)c1ccccc1 [Example 36B, N-[(1R)-6-chloro-2,3,4,9-tetrahydro-1H-carbazol-1-yl]benzamide]
60 | O=C(NC1CCCc2c1[nH]c1ccc(Cl)cc21)c1ccccc1 (stereo not shown) [Example 36A, N-(6-Chloro-2,3,4,9-tetrahydro-1H-carbazol-1-yl)benzamide]
< 10 | O=C(NC1CCCc2c1[nH]c1ccc(Br)cc21)c1ccccn1 (stereo not shown) [Example 38, N-(6-Bromo-2,3,4,9-tetrahydro-1H-carbazol-1-yl)pyridine-2-carboxamide]
14 | O=C(NC1CCCc2c1[nH]c1ccc(Br)cc21)c1cccc(F)c1 (stereo not shown) [Example 26, N-(6-Bromo-2,3,4,9-tetrahydro-1H-carbazol-1-yl)-3-fluorobenzamide]
237 | CN(C)c1ccc(NC(=O)NC2CCCc3c2[nH]c2ccc(Br)cc32)cc1 (stereo not shown) [Example 13, N-(6-Bromo-2,3,4,9-tetrahydro-1H-carbazol-1-yl)-N′-[4-(dimethylamino)phenyl]urea]
8 | Cc1ccc(C(=O)NC2CCCc3c2[nH]c2ccc(Br)cc32)cc1 (stereo not shown) [Example 24, N-(6-Bromo-2,3,4,9-tetrahydro-1H-carbazol-1-yl)-4-methylbenzamide]
73 | O=C(NC1CCCc2c1[nH]c1ccc(Cl)cc21)c1cc[nH]n1 (stereo not shown) [Example 51, N-(6-Chloro-2,3,4,9-tetrahydro-1H-carbazol-1-yl)-1H-pyrazole-3-carboxamide]
548 | O=C(Nc1ccccc1)NC1CCCc2c1[nH]c1ccc(Br)cc21 (stereo not shown) [Example 9, N-(6-Bromo-2,3,4,9-tetrahydro-1H-carbazol-1-yl)-N′-phenylurea]
32 | O=C(NC1CCCc2c1[nH]c1ccc(Br)cc21)c1ccccc1 (stereo not shown) [Example 14A, N-(6-Bromo-2,3,4,9-tetrahydro-1H-carbazol-1-yl)benzamide]
28 | COc1cccc(C(=O)NC2CCCc3c2[nH]c2ccc(Br)cc32)c1 (stereo not shown) [Example 27, N-(6-Bromo-2,3,4,9-tetrahydro-1H-carbazol-1-yl)-3-methoxybenzamide]
5800 | O=C(NC1CCCc2c1[nH]c1ccc(Br)cc21)c1c(Cl)cccc1Cl (stereo not shown) [Example 19, N-(6-Bromo-2,3,4,9-tetrahydro-1H-carbazol-1-yl)-2,6-dichlorobenzamide]
24 | O=C(NC1CCCc2c1[nH]c1ccc(Br)cc21)c1ccc(Cl)nc1 (stereo not shown) [Example 40, N-(6-Bromo-2,3,4,9-tetrahydro-1H-carbazol-1-yl)-6-chloronicotinamide]
> 1000 | COc1ccc(NC(=O)NC2CCCc3c2[nH]c2ccc(Br)cc32)c(C)c1 (stereo not shown) [Example 11, N-(6-Bromo-2,3,4,9-tetrahydro-1H-carbazol-1-yl)-N′-(4-methoxy-2-methylphenyl)urea]
